Here are results for 20 molecules from US9566254B2, “Inhibitors and methods of inhibiting bacterial and viral pathogens” (priority 2010, dated 2017).

pEC50: −log10 of the molar value. Where a name gives a salt, the structure may show the parent alone. Read-outs that look alike come from different tables or passages of the source.

Holding throughout (experiment): microbe, parasite or virus in culture
Holding throughout (type): cell-based

Test [1] has as its system vaccinia virus. As to conditions: read-out: Avg Activity (VV).
The subject of test [2] is La Crosse virus (LACV).
Test [3] relates to Chlamydophila caviae. As to conditions: read-out: Avg Activity (C. Caviae).
The subject of test [4] is influenza virus. As to conditions: unidentified influenza virus.
Test [5] has as its system dengue virus.
The test system of test [6] is Tacaribe virus. The conditions noted are these: Mammarenavirus tacaribeense, Vero.
Test [7] relates to Ebola virus. The conditions noted are these: Zaire ebolavirus.
For test [8], the system named is Rift Valley fever virus (RVFV) vaccine strain MP-12. The conditions noted are these: Vero.
The subject of test [9] is lymphocytic choriomeningitis virus. As to conditions: for pEC50: Mammarenavirus choriomeningitidis, read-out: Misc Virus Activity: Lymphocytic Choriomeningitis.
Test [10] has as its system Andes virus.
The test system of test [11] is Sindbis virus. As to conditions: read-out: Misc Virus Activity: Sindbis.
For test [12], the system named is encephalomyocarditis virus. The conditions noted are these: Cardiovirus A, read-out: Misc Virus Activity: Encephalomyocarditis.
Test [13] relates to respiratory syncytial virus. As to conditions: human respiratory syncytial virus, read-out: Misc Virus Activity: Respiratory Syncytial.
Test [14] deals with HIV-1. The conditions noted are these: Human immunodeficiency virus 1, read-out: Misc Virus Activity: HIV-1.
Setting [15] is: La Crosse virus, Vero, read-out: Avg Activity (LACV).
Setting [16] is: A549, read-out: Misc Activity: Influenza.
The mark [17] stands for this setting: read-out: Misc Activity: Dengue.
[18] abbreviates: read-out: Misc Activity: Tacaribe.
Setting [19] is: A549, read-out: Misc Virus Activity: Influenza.
Where [20] appears, read: read-out: Misc Virus Activity: Dengue.
Setting [21] is: read-out: Misc Virus Activity: Tacaribe.
Setting [22] is: read-out: Misc Virus Activity: Ebola.
Setting [23] is: read-out: Misc Virus Activity: Rift Valley Fever.

Consider `COc1cc(NC(=S)NC(=O)c2ccc(C(C)(C)C)cc2)ccc1N` [Compound 1, N-[(4-amino-3-methoxy-phenyl)carbamothioyl]-4-tert-butyl-benzamide], for which the pEC50 in test [1] (Orthopoxvirus vaccinia) is over 6.00; in test [2] (setting [15]) it was over 6.00; in test [3] (Chlamydia caviae, Vero), over 6.00; in test [4] (setting [16]) it was over 6.00.
Consider `CC(C)(C)c1ccc(C(=O)NC(=S)Nc2ccc(NC(=O)c3ccccc3Cl)c(N)c2)cc1` [Compound 6, N-[2-amino-4-[(4-tert-butylbenzoyl)-carbamothioylamino]-phenyl]-2-chloro-benzamide hydrochloride], for which the pEC50 in test [1] (Orthopoxvirus vaccinia) is over 6.00; in [2] (setting [15]) it was over 6.00; in test [3] (Chlamydia caviae, Vero) it was over 6.00; in test [4] (setting [16]), over 6.00; in test [5] (setting [17]), over 6.00; in test [6] (setting [18]) it was over 6.00. Besides, the pEC50 in test [7] (read-out: Misc Activity: Ebola) was 5.00 to 6.00.
With `Cc1ccc(Cl)c(NC(=S)NC(=O)c2ccc(C(C)(C)C)cc2)c1` [Compound 11, 4-tert-butyl-N-[(2-chloro-5-methyl-phenyl)-carbamothioyl]benzamide], the pEC50 in test [1] (Orthopoxvirus vaccinia) is over 6.00; in test [2] (setting [15]), 5.00 to 6.00; in test [3] (Chlamydia caviae, Vero), over 6.00; in test [4] (setting [16]), 5.00 to 6.00; in test [5] (setting [17]) it was over 6.00.
As to `CC(C)(C)c1ccc(C(=O)NC(=S)Nc2cccc(N)c2)cc1` [Compound 17, N-[(3-aminophenyl)-carbamothioyl]-4-tert-butyl-benzamide], the pEC50 in test [1] (Orthopoxvirus vaccinia) is 5.00 to 6.00; in test [2] (setting [15]) it was 5.00 to 6.00; in [3] (Chlamydia caviae, Vero), over 6.00; in test [4] (setting [16]) it was over 6.00; in test [5] (setting [17]) it was over 6.00; in [6] (setting [18]) it was over 6.00.
As for `COc1cc(NC(=S)NC(=O)c2ccc(C(C)(C)C)cc2)ccc1N` [Compound 18, N-[(4-amino-3-methoxy-phenyl)carbamothioyl]-4-tert-butyl-benzamide hydrochloride], the pEC50 in [1] (hydrochloride) is 5.00 to 6.00; in test [2] (read-out: Avg Activity (LACV), hydrochloride) it was 5.00 to 6.00; in [5] (setting [17]), over 6.00; in test [6] (setting [18]), over 6.00.
In the case of `COc1cc(NC(=S)NC(=O)c2ccc(C(C)(C)C)cc2)ccc1NC(C)=O` [Compound 20, N-[(4-acetamido-3-methoxy-phenyl)-carbamothioyl]-4-tert-butyl-benzamide], the pEC50 in test [1] (Orthopoxvirus vaccinia) was 5.00 to 6.00; in test [2] (setting [15]) it was 5.00 to 6.00; in test [3] (Chlamydia caviae, Vero), over 6.00; in test [4] (setting [16]) it was over 6.00; in [5] (setting [17]), over 6.00; in [6] (setting [18]) it was over 6.00.
On to `CNc1ccc(NC(=S)NC(=O)c2ccc(C(C)(C)C)cc2)cc1` [Compound 21, 4-tert-butyl-N-[[4-(methylamino)phenyl]-carbamothioyl]benzamide hydrochloride], for which the pEC50 is 5.00 to 6.00 in [1] (Orthopoxvirus vaccinia); 5.00 to 6.00 in [2] (setting [15]); over 6.00 in [3] (Chlamydia caviae, Vero); over 6.00 in [4] (setting [16]); over 6.00 in [5] (setting [17]); over 6.00 in [6] (setting [18]).
For the molecule `COc1cc(NC(=S)NC(=O)c2ccc(C(C)(C)C)cc2)ccc1NC(=O)c1ccccc1Cl` [Compound 39], the pEC50 is over 6.00 in [1] (Orthopoxvirus vaccinia); over 6.00 in test [2] (setting [15]); over 6.00 in test [3] (Chlamydia caviae, Vero); over 6.00 in test [4] (setting [19]); over 6.00 in test [5] (setting [20]); over 6.00 in test [6] (setting [21]). Moreover, the pEC50 is over 6.00 in test [7] (setting [22]); over 6.00 in test [8] (setting [23]); over 6.00 in test [9]; over 6.00 in [10] (Orthohantavirus andesense, read-out: Misc Virus Activity: Andes); over 6.00 in test [11]; over 6.00 in test [12]. The pEC50 in test [13] and in test [14] was over 6.00 each time. Further, the “Lymphocytic Choriomeningitis: reduces yield” value in test [9] is given as “(reduces yield >10^4-fold)”. Also, the “Andes: reduces yield” value in [10] is recorded as “yield >100-fold)”.
Consider `CC(C)(C)c1ccc(C(=O)NC(=S)Nc2ccccc2Cl)cc1` [Compound 40, 4-tert-butyl-N-[(2-chlorophenyl)carbamothioyl]-benzamide], for which the pEC50 in [1] (Orthopoxvirus vaccinia) is over 6.00; in test [2] (setting [15]), over 6.00; in test [3] (Chlamydia caviae, Vero) it was over 6.00; in [4] (setting [19]), over 6.00; in test [5] (setting [20]) it was over 6.00; in test [6] (setting [21]), over 6.00. The figures for the pEC50 in test [7] (setting [22]), in [8] (setting [23]) and in test [9] were 4.60 to 5.00, over 6.00 and over 6.00, respectively. Further, in test [9], the “Lymphocytic Choriomeningitis: reduces yield” value was “(reduces yield >10^4-fold)”.
With `CC(C)(C)c1ccc(C(=O)NC(=S)Nc2ccc(Nc3ccccc3)cc2)cc1` [Compound 45, N-[(4-anilinophenyl)-carbamothioyl]-4-tert-butyl-benzamide], the pEC50 is over 6.00 in test [1] (Orthopoxvirus vaccinia); 5.00 to 6.00 in test [2] (setting [15]); over 6.00 in [3] (Chlamydia caviae, Vero); over 6.00 in [4] (setting [19]); over 6.00 in test [5] (setting [20]); over 6.00 in [6] (setting [21]).
`Cc1ccc(NC(=S)NC(=O)c2ccc(C(C)(C)C)cc2)c(C)c1` [Compound 48, 4-tert-butyl-N-[(2,4-dimethylphenyl)-carbamothioyl]benzamide]: the pEC50 in test [1] (Orthopoxvirus vaccinia) was 5.00 to 6.00; in test [2] (setting [15]), over 6.00; in test [3] (Chlamydia caviae, Vero), over 6.00; in [4] (setting [19]), 5.00 to 6.00; in test [5] (setting [20]) it was over 6.00; in [6] (setting [21]) it was over 6.00.
In the case of `CN(C)c1ccc(NC(=S)NC(=O)c2ccc(C(C)(C)C)cc2)cc1` [Compound 49, 4-tert-butyl-N-[(4-dimethylaminophenyl)-carbamothioyl]benzamide], the pEC50 in test [1] (Orthopoxvirus vaccinia) is 5.00 to 6.00; in test [2] (setting [15]), over 6.00; in test [3] (Chlamydia caviae, Vero), 5.00 to 6.00; in test [4] (setting [19]) it was over 6.00; in test [5] (setting [20]) it was over 6.00; in test [6] (setting [21]) it was over 6.00.
With `Cc1ccc(C)c(NC(=S)NC(=O)c2ccc(C(C)(C)C)cc2)c1` [Compound 67, 4-tert-butyl-N-[(2,5-dimethylphenyl)-carbamothioyl]benzamide], the pEC50 was 5.00 to 6.00 in [1] (Orthopoxvirus vaccinia); under 4.60 in test [2] (setting [15]); over 6.00 in [3] (Chlamydia caviae, Vero).
The matching figures for `COc1ccc(NC(=S)NC(=O)c2ccc(C(C)(C)C)cc2)cc1` [Compound 68, 4-tert-butyl-N-[(4-methoxyphenyl)-carbamothioyl]benzamide]: 5.00 to 6.00, under 4.60 and 5.00 to 6.00.
Consider `CC(C)(C)c1ccc(C(=O)NC(=S)Nc2ccc([N+](=O)[O-])cc2)cc1` [Compound 69, 4-tert-butyl-N-[(4-nitrophenyl)-carbamothioyl]benzamide], for which the pEC50 in test [1] (Orthopoxvirus vaccinia) is 5.00 to 6.00; in test [2] (setting [15]) it was under 4.60; in [3] (Chlamydia caviae, Vero), under 4.60.
Take `Cc1cccc(C)c1NC(=S)NC(=O)c1ccc(C(C)(C)C)cc1` [Compound 71, 4-tert-butyl-N-[(2,6-dimethylphenyl)-carbamothioyl]benzamide]: the pEC50 is 4.60 to 5.00 in test [1] (Orthopoxvirus vaccinia); under 4.60 in [2] (setting [15]); over 6.00 in [3] (Chlamydia caviae, Vero).
The like results for `Cc1sc(NC(=S)NC(=O)c2ccc(C(C)(C)C)cc2)c(C#N)c1C` [Compound 72, 4-tert-butyl-N-[(3-cyano-4,5-dimethyl-2-thienyl)-carbamothioyl]benzamide] were, in that order, 4.60 to 5.00, under 4.60 and 4.60 to 5.00.
For the molecule `CCNC(=S)NC(=O)c1ccc(C(C)(C)C)cc1` [Compound 73, 4-tert-butyl-N-(ethylcarbamothioyl)-benzamide], the pEC50 in test [1] (Orthopoxvirus vaccinia) is 4.60 to 5.00; in test [2] (setting [15]), under 4.60; in [3] (Chlamydia caviae, Vero), under 4.60.
In the case of `NC(=O)c1ncn([C@@H]2O[C@H](CO)[C@@H](O)[C@H]2O)n1` [ribavirin, reference compound], the pEC50 is 3.12 in test [2] (La Crosse virus, Vero, read-out: EC50 value for LACV) and 3.52 in test [8] (read-out: EC50 value for RVFV).
For the molecule “N-[3-[(4-tert-butylbenzoyl)-carbamothioylamino]phenyl]-2-chloro-benzamide [Compound 74]”, the pEC50 is under 4.60 in test [1], 5.00 to 6.00 in [2] (read-out: Avg Activity (LACV)) and under 4.60 in test [3].
